Data published in PMC5960634 (Biochemical pharmacology, 2018).
Where a name gives a salt, the structure may show the parent alone.

What was measured:
[1] = target: T1, recombinant full length human estrogen receptor alpha (ERα) (Homo sapiens, UniProt P03372); test: [3H]-ketamine displacement assay; assay type: binding
[2] = target: T1, recombinant full length human estrogen receptor alpha (ERα); conditions: 1 nM [3H]-estradiol; competitor 4 nM - 40 mM
[3] = brains of female than in male mice; cited from earlier work
[4] = target: T1, recombinant full length human estrogen receptor alpha (ERα); test: [3H]-ketamine saturation radioligand binding assay; conditions: read-out: KD of [3H]-ketamine binding to ERα (saturation binding); nine concentrations of [3H]-ketamine, 4 nM to 400 nM; non-linear regression

T1 sequence (P03372 whole entry): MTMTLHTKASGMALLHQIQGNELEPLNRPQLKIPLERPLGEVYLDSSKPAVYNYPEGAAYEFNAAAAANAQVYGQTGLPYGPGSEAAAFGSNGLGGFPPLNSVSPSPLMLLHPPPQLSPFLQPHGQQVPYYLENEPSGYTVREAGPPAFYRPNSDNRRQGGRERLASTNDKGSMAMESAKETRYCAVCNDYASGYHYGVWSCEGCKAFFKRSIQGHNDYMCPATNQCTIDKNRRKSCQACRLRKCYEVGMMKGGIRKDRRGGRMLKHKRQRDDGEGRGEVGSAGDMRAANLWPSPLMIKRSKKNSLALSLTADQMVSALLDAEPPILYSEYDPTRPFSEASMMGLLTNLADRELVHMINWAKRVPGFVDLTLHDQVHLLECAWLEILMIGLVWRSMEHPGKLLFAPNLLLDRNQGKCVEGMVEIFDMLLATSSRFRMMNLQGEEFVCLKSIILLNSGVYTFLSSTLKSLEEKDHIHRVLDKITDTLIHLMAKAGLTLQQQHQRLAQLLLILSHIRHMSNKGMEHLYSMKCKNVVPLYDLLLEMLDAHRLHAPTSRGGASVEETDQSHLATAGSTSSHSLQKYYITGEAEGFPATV

| Structure (SMILES) | IC50 [1] [nM] | other results |
| --- | --- | --- |
| CNC1(c2ccccc2Cl)CCCCC1=O (stereo not drawn) [ketamine, Ketamine hydrochloride] | 2310 ± 100 | displacement of [3H]-estradiol binding to ERα (in words) [2]: failed to displace |
| N[C@]1(c2ccccc2Cl)CCC[C@H](O)C1=O [(2S,6S)-HNK] | 3530 ± 200 | – |
| N[C@@]1(c2ccccc2Cl)CCC[C@@H](O)C1=O [(2R,6R)-HNK] | 3400 ± 200 | – |
| N[C@@]1(c2ccccc2Cl)CCC[C@@H](O)C1=O [(2S,6S;2R,6R)-HNK, (2S,6S;2R,6R)-hydroxynorketamine] | – | brain concentrations, female versus male mice [3]: three fold higher |
| CNC1(c2ccccc2Cl)CCCCC1=O (racemic) [[^3H]-ketamine, (±)-Ketamine [N-methyl-^3H] hydrochloride] | – | Kd [4]: 344 nM |
